Reference: paper PMC10913730, “Antimicrobial activity of a natural compound and analogs against multi-drug-resistant Gram-positive pathogens” (Microbiology Spectrum, 2024)
Values after ≈ are worked out from the molar mass of the structure shown. Where two headings read alike, the source gives them in different places.

Tests used:
MRSA isolate TCH 1516 [1] = assay: Single-step resistance development; type: cell-based, Staphylococcus aureus; conditions: TCH 1516 stationary phase; C59 as low as 2× MIC, vancomycin up to 8× MIC
Procedure: For the single-step study, bacteria were grown to the stationary phase as described above. Bacteria at a concentration of 1E9 CFU were then plated onto C59 and vancomycin-loaded plates containing 1×, 2×, 4×, and 8× MIC concentrations of the therapeutic agents with 1% DMSO. Bacteria were incubated at 37°C for 48 hours, and colony counts were enumerated to calculate the frequency of resistance development, as described in the literature ([45], [46]).

Streptococcus pyogenes = assay: MIC/MBC against Streptococcus pyogenes; type: cell-based; conditions: for MBC: Streptococcus pyogenes
[2] = test system: MRSA isolates SA LL 06 and TCH 1516; assay: Kill kinetics against stationary-phase MRSA; type: cell-based, Staphylococcus aureus; conditions: shaking, 37°C
Procedure: MRSA isolates, TCH 1516 and SA LL 06, were grown to the stationary phase, and the rate of bacterial killing was determined. Frozen bacterial stocks were streaked onto TSA plates and grown overnight. A single colony was selected and incubated overnight in LB broth at 37°C with constant orbital shaking at 200 RPM. Next, bacterial suspension was washed twice with 150 mM sodium chloride and resuspended in MH broth at a concentration of 1.2E9 CFU/mL. […] Glass tubes containing 5 mL of bacteria and drug solutions were grown in a shaking incubator at 37°C. At 0, 4, 8, and 24 hours, bacterial suspensions were collected, serially diluted, and plated onto a blood agar plate. Bacteria were allowed to grow for 24 hours and were enumerated to yield colony-forming units per milliliter.

[3] = pH and Ka of 10-g/L aqueous solutions (pH meter); type: physicochemical; conditions: 10-g/L solution in distilled, deionized water
[4] = test system: human dermal fibroblast (HDF) cells; assay: alamarBlue cell viability assay, HDF; conditions: HDFs, 24-hour incubation, non-linear regression
Pseudomonas aeruginosa = assay: MIC against Pseudomonas aeruginosa; type: cell-based
Enterococcus faecalis = assay: MIC/MBC against Enterococcus faecalis; type: cell-based
[5] = test system: erythrocytes (sheep blood); assay: Hemolytic activity against sheep erythrocytes
[6] = test system: human bronchial epithelial (16HBE) cells; assay: alamarBlue cell viability assay, 16HBE; conditions: 24-hour incubation, non-linear regression
[7] = test system: Staphylococcus epidermidis isolates; assay: microbe, parasite or virus in culture; type: cell-based
MRSA isolates = assay: MIC/MBC, CLSI broth microdilution, MRSA isolates; type: cell-based, Staphylococcus aureus
MRSA isolate TCH 1516 [8] = assay: Resistance acquisition during serial passage; type: cell-based, Staphylococcus aureus; conditions: serial passage, after 21 days
Procedure: MRSA isolate TCH 1516 was grown to the stationary phase (OD650 = 1.0) in 10 mL of MH broth. […] The second highest drug concentration resulting in bacterial growth (OD650 >1.0) was used as the inoculum after a 1:1,000 dilution for subsequent steps, every 24 hours, for up to 21 days.

[9] = test system: MRSA isolate SAD05 biofilms; type: cell-based, Staphylococcus aureus; conditions: 72-hour biofilms of SAD05, MBEC assay
[10] = Streptococcus pyogenes (NR1575)
[11] = ATCC49532, Enterococcus faecalis (ATCC 49532)
[12] = ATCC51575, Enterococcus faecalis (ATCC 51575)
[13] = 21 Staphylococcus epidermidis isolates
[14] = Staphylococcus aureus, MRSA, pH 5.5, MRSA 0606, pH 5.5
[15] = Staphylococcus aureus, MRSA, pH 5.5, MRSA 0608, pH 5.5
[16] = Staphylococcus aureus, MRSA, pH 5.5, MRSA 0634, pH 5.5
[17] = Staphylococcus aureus, MRSA, pH 5.5, MRSA 0641, pH 5.5
[18] = Staphylococcus aureus, MRSA, pH 5.5, MRSA 0646, pH 5.5
[19] = Staphylococcus aureus, MRSA, pH 5.5, TCH 1516, pH 5.5
[20] = Staphylococcus aureus, MRSA, pH 6.5, MRSA 0606, pH 6.5
[21] = Staphylococcus aureus, MRSA, pH 6.5, MRSA 0608, pH 6.5
[22] = Staphylococcus aureus, MRSA, pH 6.5, MRSA 0634, pH 6.5
[23] = Staphylococcus aureus, MRSA, pH 6.5, MRSA 0641, pH 6.5
[24] = Staphylococcus aureus, MRSA, pH 6.5, MRSA 0646, pH 6.5
[25] = Staphylococcus aureus, MRSA, pH 6.5, TCH 1516, pH 6.5
[26] = Staphylococcus aureus, MRSA, pH 7.4, MRSA 0606, pH 7.4
[27] = Staphylococcus aureus, MRSA, pH 7.4, MRSA 0608, pH 7.4
[28] = Staphylococcus aureus, MRSA, pH 7.4, MRSA 0634, pH 7.4
[29] = Staphylococcus aureus, MRSA, pH 7.4, MRSA 0641, pH 7.4
[30] = Staphylococcus aureus, MRSA, pH 7.4, MRSA 0646, pH 7.4
[31] = Staphylococcus aureus, MRSA, pH 7.4, TCH 1516, pH 7.4

## Oc1c(Cl)cc(Cl)cc1-c1cc(Cl)cc(Cl)c1O [C59, 3,3′,5,5′-tetrachloro-[1,1′-biphenyl]−2,2′-diol]
MRSA isolate TCH 1516 [1]
  growth on drug-loaded plates: No growth
Streptococcus pyogenes; Streptococcus pyogenes (NR1571), read-out: MIC
  MIC: 6 µg/mL (≈ 18.5 µM)
Streptococcus pyogenes; [10]
  MIC: 6 µg/mL (≈ 18.5 µM)
  MBC: 16 µg/mL (≈ 49.4 µM)
Streptococcus pyogenes; Streptococcus pyogenes (NR1571)
  MBC: 24 µg/mL (≈ 74.1 µM)
[2]; stationary-phase SA LL 06, C59 at 1× and 2× MIC
  bacterial killing after 24 hours: complete bacterial eradication
[2]; stationary-phase TCH 1516
  bacterial killing after 24 hours: did not result in complete bacterial killing
[3]
  acid dissociation constant (Ka): 6.18 × 10^−19
[3]; room temperature
  pH of solution: 9.86
[4]
  LD50: 56.0 µg/mL
Pseudomonas aeruginosa; Pseudomonas aeruginosa (PAM57-15)
  MIC: > 32 µg/mL
Pseudomonas aeruginosa; Pseudomonas aeruginosa (PAO1)
  MIC: > 32 µg/mL
Enterococcus faecalis; [11]
  MBC: 16 µg/mL (≈ 49.4 µM)
  MIC: 8 µg/mL (≈ 24.7 µM)
Enterococcus faecalis; [12]
  MBC: 16 µg/mL (≈ 49.4 µM)
  MIC: 8 µg/mL (≈ 24.7 µM)
[5]; 1% sheep blood, 1-hour incubation
  concentrations at which erythrocytes were not lysed: up to 24 µg/mL
[5]; higher than MIC90, stated in the hemolysis discussion, cell type not named
  LD50 relative to MIC90: 24 fold
[6]
  LD50: 40.2 µg/mL
[7]; [13]
  MBC range: 6 to 12 µg/mL
  MIC range: 2 to 4 µg/mL
[7]; Staphylococcus epidermidis
  MIC90: 4 µg/mL (≈ 12.3 µM)
[7]; Staphylococcus epidermidis, read-out: MBC90
  MBC: 12 µg/mL (≈ 37 µM)
MRSA isolates; Staphylococcus aureus, MRSA, 39 evaluated MRSA isolates, CLSI broth microdilution
  MIC90: 2 µg/mL (≈ 6.17 µM)
MRSA isolates; Staphylococcus aureus, MRSA, SA LL 06, as given for the kill kinetic assay
  MIC: 2 µg/mL (≈ 6.17 µM)
MRSA isolates; Staphylococcus aureus, MRSA, TCH 1516, as given for the kill kinetic assay
  MIC: 2 µg/mL (≈ 6.17 µM)
MRSA isolates; [14]
  MBC: 0.5 µg/mL (≈ 1.54 µM)
  MIC: 0.5 µg/mL (≈ 1.54 µM)
MRSA isolates; [15]
  MBC: 0.5 µg/mL (≈ 1.54 µM)
  MIC: 0.5 µg/mL (≈ 1.54 µM)
MRSA isolates; [16]
  MBC: 0.5 µg/mL (≈ 1.54 µM)
  MIC: 0.5 µg/mL (≈ 1.54 µM)
MRSA isolates; [17]
  MBC: 0.5 µg/mL (≈ 1.54 µM)
  MIC: 0.5 µg/mL (≈ 1.54 µM)
MRSA isolates; [18]
  MBC: 0.5 µg/mL (≈ 1.54 µM)
  MIC: 0.5 µg/mL (≈ 1.54 µM)
MRSA isolates; [19]
  MBC: 0.5 µg/mL (≈ 1.54 µM)
  MIC: 0.5 µg/mL (≈ 1.54 µM)
MRSA isolates; Staphylococcus aureus, MRSA, pH 5.5, read-out: Average MBC, average of six MRSA isolates, pH 5.5
  MBC: 0.5 µg/mL (≈ 1.54 µM)
MRSA isolates; Staphylococcus aureus, MRSA, pH 5.5, read-out: Average MIC, average of six MRSA isolates, pH 5.5
  MIC: 0.5 µg/mL (≈ 1.54 µM)
MRSA isolates; [20]
  MBC: 6 µg/mL (≈ 18.5 µM)
  MIC: 1 µg/mL (≈ 3.09 µM)
MRSA isolates; [21]
  MBC: 2 µg/mL (≈ 6.17 µM)
  MIC: 2 µg/mL (≈ 6.17 µM)
MRSA isolates; [22]
  MBC: 4 µg/mL (≈ 12.3 µM)
  MIC: 1 µg/mL (≈ 3.09 µM)
MRSA isolates; [23]
  MBC: 4 µg/mL (≈ 12.3 µM)
  MIC: 1 µg/mL (≈ 3.09 µM)
MRSA isolates; [24]
  MBC: 4 µg/mL (≈ 12.3 µM)
  MIC: 1 µg/mL (≈ 3.09 µM)
MRSA isolates; [25]
  MBC: 4 µg/mL (≈ 12.3 µM)
  MIC: 1 µg/mL (≈ 3.09 µM)
MRSA isolates; Staphylococcus aureus, MRSA, pH 6.5, read-out: Average MBC, average of six MRSA isolates, pH 6.5
  MBC: 4 µg/mL (≈ 12.3 µM)
MRSA isolates; Staphylococcus aureus, MRSA, pH 6.5, read-out: Average MIC, average of six MRSA isolates, pH 6.5
  MIC: 1.2 µg/mL (≈ 3.7 µM)
MRSA isolates; [26]
  MBC: 4 µg/mL (≈ 12.3 µM)
  MIC: 2 µg/mL (≈ 6.17 µM)
MRSA isolates; [27]
  MBC: 6 µg/mL (≈ 18.5 µM)
  MIC: 2 µg/mL (≈ 6.17 µM)
MRSA isolates; [28]
  MBC: 8 µg/mL (≈ 24.7 µM)
  MIC: 2 µg/mL (≈ 6.17 µM)
MRSA isolates; [29]
  MBC: 8 µg/mL (≈ 24.7 µM)
  MIC: 2 µg/mL (≈ 6.17 µM)
MRSA isolates; [30]
  MBC: 4 µg/mL (≈ 12.3 µM)
  MIC: 2 µg/mL (≈ 6.17 µM)
MRSA isolates; [31]
  MBC: 4 µg/mL (≈ 12.3 µM)
  MIC: 2 µg/mL (≈ 6.17 µM)
MRSA isolates; Staphylococcus aureus, MRSA, pH 7.4, read-out: Average MBC, average of six MRSA isolates, pH 7.4
  MBC: 5.7 µg/mL (≈ 17.6 µM)
MRSA isolates; Staphylococcus aureus, MRSA, pH 7.4, read-out: Average MIC, average of six MRSA isolates, pH 7.4
  MIC: 2 µg/mL (≈ 6.17 µM)
MRSA isolates; Staphylococcus aureus, MRSA, read-out: MBC90, 39 evaluated MRSA isolates, CLSI broth microdilution
  MBC: 6 µg/mL (≈ 18.5 µM)
MRSA isolates; six MRSA isolates, pH lowered to 5.5
  change of MIC and MBC with the reduction in pH: decreased as much as fourfold
MRSA isolate TCH 1516 [8]
  increase in MIC: no change in MIC
[9]
  concentration that completely eradicated biofilms: 16 µg/mL
